Values of other authors in patent US9789071B2 (G2B Pharma Inc., priority 2012, dated 2017).

Columns and labels:
[1] = dogs
[2] = sublingual doses 5 to 40 mg, as the bitartrate salt
[3] = oral route
[4] = normal human subjects, IM epinephrine injection
[5] = IM injection
[6] = dogs; remark: listed apart in the source
[7] = nasal mucosa, needleless high-pressure injection

CNC[C@H](O)c1ccc(O)c(O)c1 [epinephrine]
greatest epinephrine plasma concentrations ([1]; CPR, 7.5 mg/kg/nostril epinephrine after 0.25 mg/kg/nostril intranasal phentolamine, 1% taurodeoxycholic acid): ~1,400 ng/mL
absolute bioavailability ([1]; intranasal, with 1% taurodeoxycholic acid): quite low
plasma concentrations [2]: equivalent to IM injection
bioavailability [3]: negligible
Tmax [4]: 69 ± 19 min
onset of action (Tmax) [5]: 3 to 8 min
time peak systolic pressure was maintained [6]: about 180 seconds
peak systolic pressure ([6]; at 60 seconds): 200 % of baseline
peak epinephrine levels in the blood [6, 7]: ~20 ng/mL
time of peak (Tmax) epinephrine levels in the blood [6, 7]: 0.25 min
